From ChEMBL document CHEMBL1697781, “Assessment of the health effects of chemicals in humans: II. Construction of an adverse effects database for QSAR modeling” (Curr Drug Discov Technol, 2004)

Legend:
Conditions in all cases: human; call rule not given here
[1] = system: Hepatotoxicity; assay: FDA HLAED, liver enzyme composite activity
[2] = system: Hepatotoxicity; assay: FDA HLAED, alkaline phosphatase increase
[3] = system: Hepatotoxicity; assay: FDA HLAED, serum glutamic oxaloacetic transaminase (SGOT) increase
[4] = system: Hepatotoxicity; assay: FDA HLAED, serum glutamic pyruvic transaminase (SGPT) increase
[5] = system: Hepatotoxicity; assay: FDA HLAED, lactate dehydrogenase (LDH) increase
[6] = system: Hepatotoxicity; assay: FDA HLAED, gamma-glutamyl transferase (GGT) increase
For GGT Increase - Index Value in this document: reference of the scale not given here.
For LDH Increase - Index Value in this document: reference of the scale not given here.

Row | SMILES | Composite Activity - Active [1] | Composite Activity - Marginal [1] | Composite Activity - Score [1] | Alkaline Phosphatase Increase - Activity Score [2] | Alkaline Phosphatase Increase - Index Value [2] | Alkaline Phosphatase Increase - Number of Reports [2] | SGOT Increase - Activity Score [3] | SGOT Increase - Index Value [3] | SGOT Increase - Number of Reports [3] | SGPT Increase - Activity Score [4] | SGPT Increase - Index Value [4] | SGPT Increase - Number of Reports [4] | LDH Increase - Activity Score [5] | LDH Increase - Index Value [5] | LDH Increase - Number of Reports [5] | GGT Increase - Activity Score [6] | GGT Increase - Index Value [6] | GGT Increase - Number of Reports [6]
1 | COc1cc2nc(N3CCN(C(=O)C4COc5ccccc5O4)CC3)nc(N)c2cc1OC (stereo unspecified) [DOXAZOSIN] | 0 | 0 | Inactive | Inactive | 0.2 | < 4 | Inactive | 0.3 | < 4 | Inactive | 0.5 | >= 4 | Inactive | 0.2 | < 4 | Inactive | 0.2 | < 4
2 | Clc1ccc2c(c1)C(N1CCNCC1)=Nc1ccccc1O2 [AMOXAPINE] | 0 | 0 | Inactive | Inactive | 0.7 | < 4 | Inactive | 1 | < 4 | Inactive | 0.7 | < 4 | Inactive | 0.7 | < 4 | Inactive | 0 | < 4
3 | O=C1CN=C(c2ccccc2)c2cc(Cl)ccc2N1CC1CC1 [PRAZEPAM] | 0 | 0 | Inactive | Inactive | 0.3 | < 4 | Inactive | 0.3 | < 4 | Inactive | 0.3 | < 4 | Inactive | 0 | < 4 | Inactive | 0 | < 4
4 | CCN(CC)CCNC(=O)c1cc(Cl)c(N)cc1OC [METOCLOPRAMIDE] | 0 | 0 | Inactive | Inactive | No Shipping Units | < 4 | Inactive | 0 | < 4 | Inactive | 0 | < 4 | Inactive | 0 | < 4 | Inactive | 0 | < 4
5 | COc1ccc(C(CN(C)C)C2(O)CCCCC2)cc1 (stereo unspecified) [VENLAFAXINE] | 0 | 0 | Inactive | Inactive | 1.3 | >= 4 | Inactive | 2.7 | >= 4 | Inactive | 2.3 | >= 4 | Inactive | 0.7 | >= 4 | Inactive | 0.9 | >= 4
6 | Cc1nnc2n1-c1ccc(Cl)cc1C(c1ccccc1Cl)=NC2 [TRIAZOLAM] | 0 | 0 | Inactive | Inactive | 0.4 | < 4 | Inactive | 0.3 | < 4 | Inactive | 0 | < 4 | Inactive | 0 | < 4 | Inactive | 0 | < 4
7 | O=S(=O)([O-])CCS.[Na+] [MESNA] | 0 | 0 | Inactive | Inactive | 0 | < 4 | Inactive | 5 | < 4 | Inactive | 0 | < 4 | Inactive | 5 | < 4 | Inactive | 0 | < 4
8 | C[C@H](CCC(=O)O)[C@H]1CC[C@H]2[C@@H]3[C@@H](O)C[C@@H]4C[C@H](O)CC[C@]4(C)[C@H]3CC[C@]12C [URSODIOL] | 2 | 0 | Active | Active | 14.5 | >= 4 | Active | 9.7 | >= 4 | Inactive | 4.8 | < 4 | Inactive | 4.8 | < 4 | Inactive | 4.8 | < 4
9 | CC=CC1=C(C(=O)O)N2C(=O)[C@@H](NC(=O)[C@H](N)c3ccc(O)cc3)[C@H]2SC1 [CEFPROZIL] | 0 | 0 | Inactive | Inactive | 0.2 | >= 4 | Inactive | 0.4 | >= 4 | Inactive | 0.2 | >= 4 | Inactive | 0.2 | >= 4 | Inactive | 0.1 | < 4
10 | Cc1nnc2n1-c1ccc(Cl)cc1C(c1ccccc1)=NC2 [ALPRAZOLAM] | 0 | 0 | Inactive | Inactive | 0.4 | >= 4 | Inactive | 0.7 | >= 4 | Inactive | 0.9 | >= 4 | Inactive | 0.5 | >= 4 | Inactive | 0 | < 4
11 | O=c1n(CCCN2CCN(c3cccc(Cl)c3)CC2)nc2ccccn12 [TRAZODONE] | 0 | 0 | Inactive | Inactive | 0.2 | < 4 | Inactive | 0.3 | < 4 | Inactive | 0 | < 4 | Inactive | 0.3 | < 4 | Inactive | 0 | < 4
12 | COc1ccc(C(=O)Nc2ccccc2CCC2CCCCN2C)cc1 (stereo unspecified) [ENCAINIDE] | 3 | 1 | Active | Marginally Active | 3.6 | >= 4 | Active | 12.4 | >= 4 | Active | 7.7 | >= 4 | Active | 4.1 | >= 4 | Inactive | 0 | < 4
